Assay results reported in patent publication US20250312499A1, “KISSPEPTIN RECEPTOR (KISS1R) TARGETED THERAPEUTICS AND USES THEREOF” (priority 2024, published 2025).
Numbered stars: 1 amine (or outer) side, 2 acyl side, 3 side chain; on linkers, the order of the positions; unused ones are H or OH. Square brackets hold non-standard residues; d marks the D form. Peptide text beside a SMILES is read from it. * marks the point of attachment. DOTA = O=C(O)CN1CCN(CC(=O)O)CCN(CC(=O)*)CCN(CC(=O)O)CC1; Gly(N-(3-F-4-Me-benzyl)) = Cc1ccc(CNCC(=O)*)cc1F; Propanoyl(3-(MeO(CH2CH2O)2)) = COCCOCCOCCC(=O)*; X11 = O=C(c1ccc(-c2ccccc2)c(OCCN[*:1])c1)[*:2]; Api(1-amidino) = N=C(N)N1CCC(N)(C(=O)O)CC1; Bip = N[C@@H](Cc1ccc(-c2ccccc2)cc1)C(=O)O; Phe(4-CN) = N#Cc1ccc(C[C@H](N)C(=O)O)cc1; 2Nal = N[C@@H](Cc1ccc2ccccc2c1)C(=O)O; d2Nal = N[C@H](Cc1ccc2ccccc2c1)C(=O)O; 4Pal = N[C@@H](Cc1ccncc1)C(=O)O; d4Pal = N[C@H](Cc1ccncc1)C(=O)O; Cha = N[C@@H](CC1CCCCC1)C(=O)O; 4Amb = NCc1ccc(C(=O)O)cc1; Api = NC1(C(=O)O)CCNCC1; Ahx = NCCCCCC(=O)O; azaGly = NNC(=O)O

Molecular target: human kisspeptin receptor (Homo sapiens (Human), UniProt Q969F8)
Sequence (Q969F8 whole entry): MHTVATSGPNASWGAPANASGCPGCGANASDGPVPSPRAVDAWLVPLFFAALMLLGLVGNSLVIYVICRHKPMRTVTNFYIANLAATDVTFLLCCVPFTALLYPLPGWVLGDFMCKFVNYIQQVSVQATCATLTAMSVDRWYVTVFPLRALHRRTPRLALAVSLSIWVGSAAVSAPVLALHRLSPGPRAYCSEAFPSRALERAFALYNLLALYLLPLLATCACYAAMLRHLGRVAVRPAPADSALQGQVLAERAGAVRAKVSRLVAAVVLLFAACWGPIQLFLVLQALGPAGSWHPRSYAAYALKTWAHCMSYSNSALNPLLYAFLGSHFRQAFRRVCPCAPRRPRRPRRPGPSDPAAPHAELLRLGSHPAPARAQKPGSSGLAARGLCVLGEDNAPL
Test: Human KISS1R binding assay (membrane competition binding)
Conditions: 90 min at room temperature; competition with 0.2 nM [125I]-metastin (45-54); Flp-In T-Rex 293 kisspeptin membranes; metal complexes nonradioactive Ga, In, Lu; read-out: hKiSSR Binding Ki (90 min)
In short: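 Membranes from tetracycline-induced (48 h) Flp-In T-Rex 293 cells expressing receptor, 5–10 μg, incubated 90 min at room temperature with 0.2 nM [125I]-metastin (45-54) and competitor (typically 0–10,000 nM) in Tris/Mg/Ca/EGTA/0.1% BSA, pH 7.4. Filtration, washing, counting; Ki by non-linear regression.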

Structure (SMILES)	Ki [nM]
Cc1ccc(CNCC(=O)N2CCC(NC(=O)[C@H](CC(C)C)NC(=O)NNC(=O)[C@H](CC3CCCCC3)NC(=O)c3ccc(CNC(=O)CN4CCN(CC(=O)O)CCN(CC(=O)O)CCN(CC(=O)O)CC4)cc3)(C(=O)N[C@@H](Cc3c[nH]c4ccccc34)C(N)=O)CC2)cc1F [Compound 261] ({DOTA-4Amb}-[Cha][azaGly]L[Api](Gly(N-(3-F-4-Me-benzyl)))W-NH2)	< 10
COCCOCCOCCC(=O)N[C@@H](CCCCNC(=O)CN1CCN(CC(=O)O)CCN(CC(=O)O)CCN(CC(=O)O)CC1)C(=O)N[C@@H](CC(N)=O)C(=O)N[C@H](C(=O)N[C@@H](Cc1ccccc1)C(=O)NNC(=O)N[C@@H](CC(C)C)C(=O)NC1(C(=O)N[C@@H](Cc2c[nH]c3ccccc23)C(N)=O)CCN(C(=N)N)CC1)[C@@H](C)O [Compound 264] ({Propanoyl(3-(MeO(CH2CH2O)2))}-K(DOTA)NTF[azaGly]L[Api(1-amidino)]W-NH2)	< 10
CC(C)C[C@H](NC(=O)NNC(=O)[C@H](Cc1ccccc1)NC(=O)[C@@H](NC(=O)[C@H](CC(N)=O)NC(=O)[C@@H](Cc1ccc2ccccc2c1)NC(=O)[C@@H](Cc1ccc(O)cc1)NC(=O)CCCCCNC(=O)CN1CCN(CC(=O)O)CCN(CC(=O)O)CCN(CC(=O)O)CC1)[C@@H](C)O)C(=O)NC1(C(=O)N[C@@H](Cc2c[nH]c3ccccc23)C(N)=O)CCN(C(=N)N)CC1 [Compound 269] ({DOTA-Ahx}-[dY][d2Nal]NTF[azaGly]L[Api(1-amidino)]W-NH2)	< 10
CC(C)C[C@H](NC(=O)NNC(=O)[C@H](Cc1ccccc1)NC(=O)[C@@H](NC(=O)[C@H](CC(N)=O)NC(=O)[C@@H](Cc1c[nH]c2ccccc12)NC(=O)[C@@H](Cc1ccc(O)cc1)NC(=O)c1ccc(CNC(=O)CCCCCNC(=O)CN2CCN(CC(=O)O)CCN(CC(=O)O)CCN(CC(=O)O)CC2)cc1)[C@@H](C)O)C(=O)NC1(C(=O)N[C@@H](Cc2c[nH]c3ccccc23)C(N)=O)CCN(C(=N)N)CC1 [Compound 270] ({DOTA-Ahx-4Amb}-[dY][dW]NTF[azaGly]L[Api(1-amidino)]W-NH2)	< 10
CC(C)C[C@H](NC(=O)NNC(=O)[C@H](Cc1ccc(-c2ccccc2)cc1)NC(=O)[C@@H](NC(=O)[C@H](CC(N)=O)NC(=O)[C@@H](Cc1c[nH]c2ccccc12)NC(=O)[C@@H](Cc1ccc(O)cc1)NC(=O)CCCCCNC(=O)CN1CCN(CC(=O)O)CCN(CC(=O)O)CCN(CC(=O)O)CC1)[C@@H](C)O)C(=O)NC1(C(=O)N[C@@H](Cc2c[nH]c3ccccc23)C(N)=O)CCN(C(=N)N)CC1 [Compound 271] ({DOTA-Ahx}-[dY][dW]NT[Bip][azaGly]L[Api(1-amidino)]W-NH2)	10 to 100
CC(C)C[C@H](NC(=O)NNC(=O)[C@H](Cc1ccccc1)NC(=O)[C@@H](NC(=O)[C@H](CC(N)=O)NC(=O)c1ccc(CNC(=O)CN2CCN(CC(=O)O)CCN(CC(=O)O)CCN(CC(=O)O)CC2)cc1)[C@@H](C)O)C(=O)NC1(C(=O)N[C@@H](Cc2ccncc2)C(N)=O)CCN(C(=N)N)CC1 [Compound 272] ({DOTA-4Amb}-NTF[azaGly]L[Api(1-amidino)][4Pal]-NH2)	< 10
CC(C)C[C@H](NC(=O)NNC(=O)[C@H](Cc1ccccc1)NC(=O)[C@@H](NC(=O)[C@H](CC(N)=O)NC(=O)[C@H](Cc1ccncc1)NC(=O)[C@@H](Cc1ccc(O)cc1)NC(=O)CN1CCN(CC(=O)O)CCN(CC(=O)O)CCN(CC(=O)O)CC1)[C@@H](C)O)C(=O)NC1(C(=O)N[C@@H](Cc2ccncc2)C(N)=O)CCN(C(=N)N)CC1 [Compound 273] ({DOTA}-[dY][4Pal]NTF[azaGly]L[Api(1-amidino)][4Pal]-NH2)	10 to 100
CC(C)C[C@H](NC(=O)NNC(=O)[C@H](Cc1ccccc1)NC(=O)[C@@H](NC(=O)[C@H](CC(N)=O)NC(=O)[C@H](Cc1ccc2ccccc2c1)NC(=O)[C@@H](Cc1ccc(O)cc1)NC(=O)CCCCCNC(=O)CN1CCN(CC(=O)O)CCN(CC(=O)O)CCN(CC(=O)O)CC1)[C@@H](C)O)C(=O)NC1(C(=O)N[C@@H](Cc2ccncc2)C(N)=O)CCN(C(=N)N)CC1 [Compound 275] ({DOTA-Ahx}-[dY][2Nal]NTF[azaGly]L[Api(1-amidino)][4Pal]-NH2)	< 10
CC(C)C[C@H](NC(=O)NNC(=O)[C@H](Cc1ccccc1)NC(=O)[C@@H](NC(=O)[C@H](CC(N)=O)NC(=O)[C@H](Cc1ccc2ccccc2c1)NC(=O)[C@@H](Cc1ccc(O)cc1)NC(=O)CCCCCNC(=O)CN1CCN(CC(=O)O)CCN(CC(=O)O)CCN(CC(=O)O)CC1)[C@@H](C)O)C(=O)NC1(C(=O)N[C@@H](Cc2ccc(O)cc2)C(N)=O)CCN(C(=N)N)CC1 [Compound 276] ({DOTA-Ahx}-[dY][2Nal]NTF[azaGly]L[Api(1-amidino)]Y-NH2)	< 10
CC(C)C[C@H](NC(=O)NNC(=O)[C@H](Cc1ccccc1)NC(=O)[C@@H](NC(=O)[C@H](CC(N)=O)NC(=O)[C@H](Cc1ccc2ccccc2c1)NC(=O)[C@@H](Cc1ccc(O)cc1)NC(=O)CCCCCNC(=O)CN1CCN(CC(=O)O)CCN(CC(=O)O)CCN(CC(=O)O)CC1)[C@@H](C)O)C(=O)NC1(C(=O)N[C@@H](Cc2ccccc2)C(N)=O)CCN(C(=N)N)CC1 [Compound 277] ({DOTA-Ahx}-[dY][2Nal]NTF[azaGly]L[Api(1-amidino)]F-NH2)	< 10
Cc1ccc(CNCC(=O)N2CCC(NC(=O)c3ccc(-c4ccccc4)c(OCCNNC(=O)[C@H](Cc4ccccc4)NC(=O)CCCCCNC(=O)CN4CCN(CC(=O)O)CCN(CC(=O)O)CCN(CC(=O)O)CC4)c3)(C(=O)N[C@@H](Cc3c[nH]c4ccccc34)C(N)=O)CC2)cc1F [Compound 280]	> 100
Cc1ccc(CNCC(=O)N2CCC(NC(=O)c3cc(OCCNC(=O)[C@H](Cc4ccccc4)NC(=O)CCCCCNC(=O)CN4CCN(CC(=O)O)CCN(CC(=O)O)CCN(CC(=O)O)CC4)c(-c4ccccc4)cc3C)(C(=O)N[C@@H](Cc3c[nH]c4ccccc34)C(N)=O)CC2)cc1F [Compound 282]	> 100

Other lines, results leading:

Ki [nM]	Structure (SMILES)
< 10	CC(C)C[C@H](NC(=O)NNC(=O)[C@H](Cc1ccccc1)NC(=O)[C@@H](NC(=O)[C@H](CC(N)=O)NC(=O)[C@H](Cc1ccc2ccccc2c1)NC(=O)[C@@H](Cc1ccc(O)cc1)NC(=O)CCCCCNC(=O)CN1CCN(CC(=O)O)CCN(CC(=O)O)CCN(CC(=O)O)CC1)[C@@H](C)O)C(=O)NC1(C(=O)N[C@@H](Cc2ccc(C#N)cc2)C(N)=O)CCN(C(=N)N)CC1 [Compound 278] ({DOTA-Ahx}-[dY][2Nal]NTF[azaGly]L[Api(1-amidino)][Phe(4-CN)]-NH2)
< 10	Cc1ccc(CNCC(=O)N2CCC(NC(=O)c3ccc(-c4ccccc4)c(OCCNC(=O)[C@H](Cc4ccccc4)NC(=O)[C@@H](NC(=O)[C@H](CC(N)=O)NC(=O)[C@@H](Cc4c[nH]c5ccccc45)NC(=O)[C@@H](Cc4ccc(O)cc4)NC(=O)CCCCCNC(=O)CN4CCN(CC(=O)O)CCN(CC(=O)O)CCN(CC(=O)O)CC4)[C@@H](C)O)c3)(C(=O)N[C@@H](Cc3c[nH]c4ccccc34)C(N)=O)CC2)cc1F [Compound 279] ({DOTA-Ahx}-[dY][dW]NTF[X11][Api](Gly(N-(3-F-4-Me-benzyl)))W-NH2)
< 10	Cc1ccc(CNCC(=O)N2CCC(NC(=O)[C@H](CC(C)C)NC(=O)NNC(=O)[C@H](Cc3ccccc3)NC(=O)[C@@H](NC(=O)[C@H](CC(N)=O)NC(=O)[C@@H](Cc3ccncc3)NC(=O)[C@@H](Cc3ccc(O)cc3)NC(=O)CN3CCN(CC(=O)O)CCN(CC(=O)O)CCN(CC(=O)O)CC3)[C@@H](C)O)(C(=O)N[C@@H](Cc3ccncc3)C(N)=O)CC2)cc1F [Compound 281] ({DOTA}-[dY][d4Pal]NTF[azaGly]L[Api](Gly(N-(3-F-4-Me-benzyl)))[4Pal]-NH2)
10 to 100	Cc1ccc(CNCC(=O)N2CCC(NC(=O)c3ccc(-c4ccccc4OCCNC(=O)[C@H](Cc4ccccc4)NC(=O)CCCCCNC(=O)CN4CCN(CC(=O)O)CCN(CC(=O)O)CCN(CC(=O)O)CC4)cc3)(C(=O)N[C@@H](Cc3c[nH]c4ccccc34)C(N)=O)CC2)cc1F [Compound 283]
10 to 100	CCc1cc(-c2ccccc2OCCNC(=O)[C@H](Cc2ccccc2)NC(=O)CCCCCNC(=O)CN2CCN(CC(=O)O)CCN(CC(=O)O)CCN(CC(=O)O)CC2)ccc1C(=O)NC1(C(=O)N[C@@H](Cc2c[nH]c3ccccc23)C(N)=O)CCN(C(=O)CNCc2ccc(C)c(F)c2)CC1 [Compound 284]
< 10	Cc1ccc(CNCC(=O)N2CCC(NC(=O)[C@H](CC(C)C)NC(=O)NNC(=O)[C@H](Cc3ccccc3)NC(=O)CCCCCNC(=O)[C@H](Cc3ccc4ccccc4c3)NC(=O)[C@@H](Cc3ccc(O)cc3)NC(=O)CN3CCN(CC(=O)O)CCN(CC(=O)O)CCN(CC(=O)O)CC3)(C(=O)N[C@@H](Cc3c[nH]c4ccccc34)C(N)=O)CC2)cc1F [Compound 285] ({DOTA}-[dY][2Nal][Ahx]F[azaGly]L[Api](Gly(N-(3-F-4-Me-benzyl)))W-NH2)
< 10	Cc1ccc(CNCC(=O)N2CCC(NC(=O)[C@H](CC(C)C)NC(=O)NNC(=O)[C@H](Cc3ccccc3)NC(=O)CCCCCNC(=O)[C@H](Cc3ccc4ccccc4c3)NC(=O)[C@@H](Cc3ccc(O)cc3)NC(=O)CN3CCN(CC(=O)O)CCN(CC(=O)O)CCN(CC(=O)O)CC3)(C(=O)N[C@@H](Cc3ccncc3)C(N)=O)CC2)cc1F [Compound 286] ({DOTA}-[dY][2Nal][Ahx]F[azaGly]L[Api](Gly(N-(3-F-4-Me-benzyl)))[4Pal]-NH2)
10 to 100	CC(C)C[C@H](NC(=O)NNC(=O)[C@H](Cc1ccccc1)NC(=O)CCCCCNC(=O)[C@H](Cc1ccc2ccccc2c1)NC(=O)[C@@H](Cc1ccc(O)cc1)NC(=O)CN1CCN(CC(=O)O)CCN(CC(=O)O)CCN(CC(=O)O)CC1)C(=O)NC1(C(=O)N[C@@H](Cc2c[nH]c3ccccc23)C(N)=O)CCN(C(=N)N)CC1 [Compound 287] ({DOTA}-[dY][2Nal][Ahx]F[azaGly]L[Api(1-amidino)]W-NH2)
< 10	CC(C)C[C@H](NC(=O)NNC(=O)[C@H](Cc1ccccc1)NC(=O)c1ccc(CNC(=O)[C@H](Cc2ccc3ccccc3c2)NC(=O)[C@@H](Cc2ccc(O)cc2)NC(=O)CN2CCN(CC(=O)O)CCN(CC(=O)O)CCN(CC(=O)O)CC2)cc1)C(=O)NC1(C(=O)N[C@@H](Cc2ccccc2)C(N)=O)CCN(C(=N)N)CC1 [Compound 288] ({DOTA}-[dY][2Nal][4Amb]F[azaGly]L[Api(1-amidino)]F-NH2)
